In patent publication US5866681A, “Thrombin receptor antagonists” (priority 1995, dated 1999):
pIC50: −log10 of the molar value. Read-outs that look alike come from different tables or passages of the source. *1 amine or outer side, *2 acyl side, *3 side chain or, on linkers, in order; H or OH if unused. Where a SMILES comes first, the peptide text is derived from it. Where no end group is shown, it is not given here. [ ]: non-standard residue; d: D form. The star is where a group is joined. X18 = CN(CC(c1ccccc1)c1ccccc1)[C@@H](Cc1ccccc1)C(=O)*; X25 = CN(Cc1ccc(-c2ccccc2)cc1)[C@@H](Cc1ccccc1)C(=O)*; X10 = O=C([C@H](Cc1ccccc1)N(CCCc1ccccc1)[*:1])[*:2]; X24 = CC(C)CCN([C@@H](Cc1ccccc1)C(=O)[*:2])[*:1]; X16 = CCCCCN([C@@H](Cc1ccccc1)C(=O)[*:2])[*:1]; X12 = CCCCCN([C@H](Cc1ccccc1)C(=O)[*:2])[*:1]; X15 = CCCCN([C@@H](Cc1ccccc1)C(=O)[*:2])[*:1]; 2Naphthylsulfonyl = O=S(=O)(c1ccc2ccccc2c1)*; X6 = CCCCCN(CCCCC)[C@@H](Cc1ccccc1)C(=O)*; Benzoyl(2-Ph) = O=C(c1ccccc1-c1ccccc1)*; Butanoyl(2-OPh) = CCC(Oc1ccccc1)C(=O)*; X5 = CCCCCN(C)[C@@H](Cc1ccccc1)C(=O)*; X4 = CCCCCN1Cc2ccccc2C[C@H]1C(=O)*; NMeR = CN[C@@H](CCCNC(=N)N)C(=O)O; hArg = N=C(N)NCCCC[C@H](N)C(=O)O; Cha = N[C@@H](CC1CCCCC1)C(=O)O; dCha = N[C@H](CC1CCCCC1)C(=O)O; X21 = CCCCC(Oc1ccccc1)C(=O)*; X8 = O=C(C1CCc2ccccc2C1)*; Orn = NCCC[C@H](N)C(=O)O

Assays:
[1] = target: T1, platelet thrombin receptors (Homo sapiens, UniProt P25116); details: platelet thrombin receptors activated with either thrombin or agonist peptides; cited from earlier work
T1 construct: host or cells: platelets
T1 sequence (P25116 22-425): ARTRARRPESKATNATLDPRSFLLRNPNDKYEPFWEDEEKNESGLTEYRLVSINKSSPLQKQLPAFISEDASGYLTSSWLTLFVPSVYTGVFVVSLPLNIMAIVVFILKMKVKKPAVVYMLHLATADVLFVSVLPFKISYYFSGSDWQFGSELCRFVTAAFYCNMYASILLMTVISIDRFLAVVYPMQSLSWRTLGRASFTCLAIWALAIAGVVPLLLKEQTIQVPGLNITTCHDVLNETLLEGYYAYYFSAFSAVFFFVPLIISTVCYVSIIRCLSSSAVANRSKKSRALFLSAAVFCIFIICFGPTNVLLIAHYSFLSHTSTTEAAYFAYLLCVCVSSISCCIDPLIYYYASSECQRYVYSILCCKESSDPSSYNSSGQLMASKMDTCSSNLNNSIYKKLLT

[2] = target: T2, thrombin receptor (Homo sapiens, UniProt P25116); experiment: Platelet aggregation assay for thrombin receptor antagonist activity (washed human platelets stimulated with α-thrombin); format: cell-based
T2 construct: washed human platelets are prepared from blood drawn from healthy volunteers; endogenous in cells; host or cells: washed human platelets from healthy volunteers
T2 sequence (P25116 22-425): T1 sequence (P25116 22-425)
Procedure: The compounds of the present invention may be tested for thrombin receptor antagonist activity by using a platelet aggregation assay. In this assay, washed human platelets are prepared from blood drawn from healthy volunteers who have not ingested any medications for two weeks prior to donation. Blood is drawn into 12.5% (vol/vol) ACD (85 mM sodium citrate, 111 mM dextrose, 71 mM citric acid) containing 0.1% (vol/vol) PGI2 (0.05 mg/mL PGI2, 100 mM Tris, pH 12). Platelet-rich plasma was obtained by centrifugation at 160×g for 20 minutes. The platelets were pelleted by centrifugation at 760×g for 10 minutes and resuspended in CGS (13 mM trisodium citrate, 120 mM sodium chloride, 30 mM dextrose, pH 7.0) containing 0.1% (vol/vol) PGI2, repelleted and resuspended in Tyrodes buffer (10 mM Hepes, 12 mM sodium bicarbonate, 138 mM sodium chloride, 5.5 mM glucose, 2.9 mM potassium chloride, 1.0 mM calcium chloride, pH 7.4) and stored at 37° C. Approximately 0.4-10 nM α-thrombin is used to stimulate platelet aggregation in control reactions which are monitored by aggregometry using an aggregometer. Candidate antagonists are added to the platelet mixture followed by the addition of thrombin in order to assess their ability to prevent thrombin-mediated aggregation.
Platelet aggregation can also be measured with washed platelets in 96-well microtiter plates as described in Fratantoni, J. C. et al., Am. J. Clin. Pathol. 94:613-617 (1990). The ability of the antagonists to block the thrombin receptor was assessed in this assay using various concentrations of antagonists. The concentration at which 50% inhibition of platelet aggregation is achieved is defined as IC50.

[3] = washed human platelets, thrombin-mediated aggregation, read-out: IC50 (concentration at which 50% inhibition of platelet aggregation is achieved)

pIC50 [2, 3]	Molecule	other results
	Phe-Leu-Leu-Arg-Asn-OH (FLLRN-OH) [pentapeptide based on a portion of the agonist peptide minimum structure]	thrombin receptor antagonist activity [1]: weak antagonist
4.12	CCC(Oc1ccccc1)C(=O)N[C@@H](CC1CCCCC1)C(=O)N[C@@H](CC1CCCCC1)C(=O)N[C@@H](CCCCN)C(=O)N[C@@H](CCCCN)C(N)=O (stereo partly shown) [Compound 49] ({Butanoyl(2-OPh)}-[Cha][Cha]KK-NH2)	
4.60	CCC(Oc1ccccc1)C(=O)N[C@@H](CC1CCCCC1)C(=O)N[C@@H](CC1CCCCC1)C(=O)NCCCN(C)C (stereo partly shown) [Compound 60]	
	CN(CC(c1ccccc1)c1ccccc1)[C@@H](Cc1ccccc1)C(=O)N[C@@H](CC1CCCCC1)C(=O)N[C@@H](CC1CCCCC1)C(=O)N[C@@H](CCCNC(=N)N)C(=O)N[C@@H](CCCCN)C(N)=O [Compound 16] (X18-[Cha][Cha]RK-NH2)	pIC50 [2]: 5.00
5.30	CC(C)CCN[C@@H](Cc1ccccc1)C(=O)N[C@@H](CC1CCCCC1)C(=O)N[C@@H](CC1CCCCC1)C(=O)N[C@@H](CCCNC(=N)N)C(=O)N[C@@H](CCCCN)C(=O)N1CCC[C@H]1C(=O)N[C@@H](CC(N)=O)C(=O)N[C@@H](CC(=O)O)C(=O)N[C@@H](CCCCN)C(N)=O [Compound 1] (H-[X24][Cha][Cha]RKPNDK-NH2)	
5.12	CC(COc1ccccc1)N[C@@H](CC1CCCCC1)C(=O)N[C@@H](CC1CCCCC1)C(=O)N[C@@H](CCCNC(=N)N)C(=O)N[C@@H](CCCCN)C(N)=O (stereo partly shown) [Compound 36]	
5.30	CCCCN[C@@H](Cc1ccccc1)C(=O)N[C@@H](CC1CCCCC1)C(=O)N[C@@H](CC1CCCCC1)C(=O)N[C@@H](CCCNC(=N)N)C(=O)N[C@@H](CCCCN)C(=O)N1CCC[C@H]1C(=O)N[C@@H](CC(N)=O)C(=O)N[C@@H](CC(=O)O)C(=O)N[C@@H](CCCCN)C(N)=O [Compound 4] (H-[X15][Cha][Cha]RKPNDK-NH2)	
4.82	CCC(Oc1ccccc1)C(=O)N[C@@H](CC1CCCCC1)C(=O)N[C@@H](CC1CCCCC1)C(=O)N[C@@H](CCCNC(=N)N)C(=O)N[C@H](CCCCN)C(N)=O (stereo partly shown) [Compound 52] ({Butanoyl(2-OPh)}-[Cha][Cha]R[dK]-NH2)	
5.10	CCCCCN1Cc2ccccc2C[C@H]1C(=O)N[C@@H](CC1CCCCC1)C(=O)N[C@@H](CC1CCCCC1)C(=O)N(C)[C@@H](CCCNC(=N)N)C(=O)N[C@@H](CCCNC(=N)N)C(N)=O [Compound 39] (X4-[Cha][Cha][NMeR]R-NH2)	
5.30	CN(Cc1ccc(-c2ccccc2)cc1)[C@@H](Cc1ccccc1)C(=O)N[C@@H](CC1CCCCC1)C(=O)N[C@@H](CC1CCCCC1)C(=O)N[C@@H](CCCNC(=N)N)C(=O)N[C@@H](CCCCN)C(N)=O [Compound 18] (X25-[Cha][Cha]RK-NH2)	
	N=C(N)NCCC[C@H](NC(=O)[C@H](CC1CCCCC1)NC(=O)[C@H](CC1CCCCC1)NC(=O)[C@H](Cc1ccccc1)NCCCc1ccccc1)C(=O)N[C@@H](CCCCN)C(=O)N1CCC[C@H]1C(=O)N[C@@H](CC(N)=O)C(=O)N[C@@H](CC(=O)O)C(=O)N[C@@H](CCCCN)C(N)=O [Compound 7] (H-[X10][Cha][Cha]RKPNDK-NH2)	pIC50 [2]: 5.30
5.00	N=C(N)NCCC[C@H](NC(=O)[C@H](CC1CCCCC1)NC(=O)[C@H](CC1CCCCC1)NS(=O)(=O)c1ccc2ccccc2c1)C(=O)N[C@@H](CCCCN)C(N)=O [Compound 38] (2Naphthylsulfonyl-[Cha][Cha]RK-NH2)	
	CCCCCN[C@@H](Cc1ccccc1)C(=O)N[C@@H](CC1CCCCC1)C(=O)N[C@@H](CC1CCCCC1)C(=O)N[C@@H](CCCNC(=N)N)C(=O)N[C@@H](CCCCN)C(N)=O [Compound 14] (H-[X16][Cha][Cha]RK-NH2)	pIC50 [2]: 5.30
6.00	CCC(Oc1ccccc1)C(=O)N[C@@H](CC1CCCCC1)C(=O)N[C@@H](CC1CCCCC1)C(=O)N[C@@H](CCCCNC(=N)N)C(=O)N[C@@H](CCCNC(=N)N)C(N)=O (stereo partly shown) [Compound 55] ({Butanoyl(2-OPh)}-[Cha][Cha][hArg]R-NH2)	
5.60	CCC(Oc1ccccc1)C(=O)N[C@@H](CC1CCCCC1)C(=O)N[C@@H](CC1CCCCC1)C(=O)N[C@@H](CCCNC(=N)N)C(=O)N[C@@H](CCCNC(=N)N)C(N)=O (stereo partly shown) [Compound 51] ({Butanoyl(2-OPh)}-[Cha][Cha]RR-NH2)	
4.82	CCCCC(Oc1ccccc1)C(=O)N[C@@H](CC1CCCCC1)C(=O)N[C@@H](CC1CCCCC1)C(=O)N[C@@H](CCCNC(=N)N)C(=O)N[C@@H](CCCCN)C(N)=O (stereo partly shown) [Compound 24] (X21-[Cha][Cha]RK-NH2)	
4.05	CCC(Oc1ccccc1)C(=O)N[C@@H](CC1CCCCC1)C(=O)N[C@@H](CC1CCCCC1)C(=O)NCCCN1CCN(CCCN)CC1 (stereo partly shown) [Compound 59]	
< 3.70	N=C(N)NCCC[C@H](NC(=O)[C@H](CC1CCCCC1)NC(=O)[C@H](CC1CCCCC1)NC(=O)C1CCc2ccccc2C1)C(=O)N[C@@H](CCCCN)C(N)=O (stereo partly shown) [Compound 31] (X8-[Cha][Cha]RK-NH2)	
4.82	CCC(Oc1ccccc1)C(=O)N[C@@H](Cc1ccccc1)C(=O)N[C@@H](CC1CCCCC1)C(=O)N[C@@H](CCCNC(=N)N)C(=O)N[C@@H](CCCCN)C(N)=O (stereo partly shown) [Compound 46] ({Butanoyl(2-OPh)}-F[Cha]RK-NH2)	
4.60	N=C(N)NCCC[C@H](NC(=O)[C@H](CC1CCCCC1)NC(=O)[C@H](CC1CCCCC1)NC(=O)c1ccccc1-c1ccccc1)C(=O)N[C@@H](CCCCN)C(N)=O [Compound 25] ({Benzoyl(2-Ph)}-[Cha][Cha]RK-NH2)	
	CCCCCN[C@H](Cc1ccccc1)C(=O)N[C@@H](CC1CCCCC1)C(=O)N[C@@H](CC1CCCCC1)C(=O)N[C@@H](CCCNC(=N)N)C(=O)N[C@@H](CCCCN)C(N)=O [Compound 22] (H-[X12][Cha][Cha]RK-NH2)	pIC50 [2]: 4.60
5.60	CCC(Oc1ccccc1)C(=O)N[C@@H](CC1CCCCC1)C(=O)N[C@@H](CC1CCCCC1)C(=O)N[C@@H](CCCCNC(=N)N)C(=O)N[C@@H](CCCCN)C(N)=O (stereo partly shown) [Compound 47] ({Butanoyl(2-OPh)}-[Cha][Cha][hArg]K-NH2)	
5.70	CCCCCN(CCCCC)[C@@H](Cc1ccccc1)C(=O)N[C@@H](CC1CCCCC1)C(=O)N[C@H](CC1CCCCC1)C(=O)N[C@@H](CCCNC(=N)N)C(=O)N[C@@H](CCCCN)C(N)=O [Compound 42] (X6-[Cha][dCha]RK-NH2)	
	CCCCCN(C)[C@@H](Cc1ccccc1)C(=O)N[C@@H](CC1CCCCC1)C(=O)N[C@H](CC1CCCCC1)C(=O)N[C@@H](CCCNC(=N)N)C(=O)N[C@@H](CCCCN)C(N)=O [Compound 43] (X5-[Cha][dCha]RK-NH2)	pIC50 [2]: 4.82
5.60	CCCCCN1Cc2ccccc2C[C@H]1C(=O)N[C@@H](CC1CCCCC1)C(=O)N[C@@H](CC1CCCCC1)C(=O)N[C@@H](CCCNC(=N)N)C(=O)N[C@@H](CCCCN)C(N)=O [Compound 11, (N-n-pentyl-Tic)-Cha-Cha-Arg-Lys-NH2] (X4-[Cha][Cha]RK-NH2)	
< 4.00	CCC(Oc1ccccc1)C(=O)N[C@@H](CC1CCCCC1)C(=O)N[C@@H](CC1CCCCC1)C(=O)NCc1ccncc1 (stereo partly shown) [Compound 58]	
5.70	CCC(Oc1ccccc1)C(=O)N[C@@H](Cc1ccccc1)C(=O)N[C@@H](CC1CCCCC1)C(=O)N[C@@H](CCCCNC(=N)N)C(=O)N[C@@H](CCCNC(=N)N)C(N)=O (stereo partly shown) [Compound 57] ({Butanoyl(2-OPh)}-F[Cha][hArg]R-NH2)	
4.00	CCC(Oc1ccccc1)C(=O)N[C@@H](CC1CCCCC1)C(=O)N[C@@H](CC1CCCCC1)C(=O)N[C@@H](CCCN)C(=O)N[C@@H](CCCCN)C(N)=O (stereo partly shown) [Compound 50] ({Butanoyl(2-OPh)}-[Cha][Cha][Orn]K-NH2)	
